Test results from patent US4751233A, “8[2-(imidazolyl)thio] and 8[2-(thiazolyl)thio]-5,6,7,8-tetrahydroquinolines, and anti-allergic use thereof” (Roussel Uclaf, priority 1985, dated 1988).

Tests used:
LTD4 receptor = molecular target: T1, LTD4 receptor (Cavia porcellus, UniProt Q2NNR5); assay: LTD4 RECEPTOR: inhibition of specific binding of [3H]-LTD4 to a membrane preparation of guinea-pig lung tissue; conditions: [3H]-LTD4, guinea-pig lung membranes; for IC50: graphically from dose-response curves, read-out: LTD4 receptor (concentration of tested compound causing 50% inhibition of specific binding)
T1 construct: membrane preparation of guinea-pig lung tissue; from tissue; host or cells: guinea-pig lung membranes
T1 sequence (Q2NNR5 1-340): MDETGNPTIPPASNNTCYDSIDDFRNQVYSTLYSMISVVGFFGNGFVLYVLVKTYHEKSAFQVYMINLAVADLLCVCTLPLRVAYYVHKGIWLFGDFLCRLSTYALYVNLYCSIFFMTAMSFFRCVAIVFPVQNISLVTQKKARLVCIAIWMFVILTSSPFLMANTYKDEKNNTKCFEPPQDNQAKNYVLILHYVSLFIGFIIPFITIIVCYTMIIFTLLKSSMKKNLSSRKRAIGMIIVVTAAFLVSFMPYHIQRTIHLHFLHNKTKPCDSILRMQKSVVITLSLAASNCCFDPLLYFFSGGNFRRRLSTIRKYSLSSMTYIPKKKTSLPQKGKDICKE
Protocol: Inhibition of the specific binding of [^3 H]-LTD4 to a membrane preparation of guinea-pig lung tissue was assayed by a modification of a method reported by Bruns et al [Life Sciences, Vol. 33, pp. 645-653 (1983)]and the data presented in Table II are micromolar concentrations of the tested compound causing 50% ihibition of specific binding determined graphically from dose-response curves.

5-lipoxygenase = molecular target: T2, 5-lipoxygenase (Rattus norvegicus, UniProt P12527); assay: 5-LIPOX: inhibition of Ca++ ionophore (A23187) induced release of 5-lipoxygenase products (leukotriene B4 and 5-HETE) from [14C]arachidonic acid pre-labelled rat peritoneal neutrophils; format: cell-based; conditions: A23187-induced release of leukotriene B4 and 5-HETE, graphically from dose-response curves, read-out: 5-LIPOX (concentration of test compound causing 50% inhibition of control response)
T2 sequence (P12527 1-673): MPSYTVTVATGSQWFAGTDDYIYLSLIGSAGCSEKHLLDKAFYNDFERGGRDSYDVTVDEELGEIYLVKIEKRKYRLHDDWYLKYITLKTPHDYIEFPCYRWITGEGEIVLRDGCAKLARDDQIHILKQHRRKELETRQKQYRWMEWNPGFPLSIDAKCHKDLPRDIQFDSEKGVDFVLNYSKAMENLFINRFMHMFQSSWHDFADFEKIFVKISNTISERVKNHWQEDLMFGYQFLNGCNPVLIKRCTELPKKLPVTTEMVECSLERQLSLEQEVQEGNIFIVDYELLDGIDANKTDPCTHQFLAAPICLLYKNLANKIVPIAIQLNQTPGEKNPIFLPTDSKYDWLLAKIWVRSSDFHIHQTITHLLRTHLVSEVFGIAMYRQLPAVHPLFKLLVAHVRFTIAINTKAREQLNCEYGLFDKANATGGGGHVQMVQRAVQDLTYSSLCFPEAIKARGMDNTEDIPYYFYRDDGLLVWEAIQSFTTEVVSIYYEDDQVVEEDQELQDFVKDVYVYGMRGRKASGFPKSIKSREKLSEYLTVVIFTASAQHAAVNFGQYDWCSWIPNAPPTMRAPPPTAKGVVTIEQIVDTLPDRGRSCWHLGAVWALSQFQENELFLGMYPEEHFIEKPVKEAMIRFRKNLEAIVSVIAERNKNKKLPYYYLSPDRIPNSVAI
Description: Inhibition of the Ca^++ ionophore (A23187) induced release of 5-lipoxygenase products, leukotriene B4 and 5-HETE, from [^14 C]arachidonic acid pre-labelled rat peritoneal neutrophils. Assayed by a modification of the method reported by Ahnfelt-Ronne et al [Biochemical Pharmacology, Vol. 31, No. 16, pp 2619-2624 (1982)]. Data presented in Table II are micromolar concentrations of test compound causing 50% inhibition of control response determined graphically from dose-response curves.

IC50 (LTD4 receptor) [µM]	IC50 (5-lipoxygenase) [µM]	LTD4 receptor, remark printed beside the value (LTD4 receptor; remark in words)	SMILES
10	1.8		c1cnc2c(c1)CCCC2Sc1nc2ccccc2s1 (stereo not shown) [Example 1, 8-(2-benzothiazolylthio)-5,6,7,8-tetrahydroquinoline]
	58		COc1ccc2nc(SC3CCCc4cccnc43)[nH]c2c1 (stereo not shown) [Example 2, 8-(6-methoxy-1H-benzimidazol-2-ylthio)-5,6,7,8-tetrahydroquinoline]
> 100	35.1		c1cnc2c(c1)CCCC2Sc1nc2ccccc2[nH]1 (stereo not shown) [Example 3, 8-(1H-benzimidazol-2-ylthio)-5,6,7,8-tetrahydroquinoline]
	20		CCOC(=O)Cc1ccc2[nH]c(SC3CCCc4cccnc43)nc2c1 (stereo not shown) [Example 4, ethyl 2-[(5,6,7,8-tetrahydro-8-quinolinyl)-thio]-1H-benzimidazole-5-acetate]
> 100	16.9		c1cnc2c(c1)CCCC2Sc1nc2ccccc2o1 (stereo not shown) [Example 9, 8-(2-benzoxazolylthio)-5,6,7,8-tetrahydroquinoline]
9	1.2		CCOc1ccc2nc(SC3CCCc4cccnc43)sc2c1 (stereo not shown) [Example 13, 8-[(6-ethoxy-2-benzothiazolyl)thio]-5,6,7,8-tetrahydroquinoline]
> 100	4		O=[N+]([O-])c1ccc2nc(SC3CCCc4cccnc43)sc2c1 (stereo not shown) [Example 20]
33	12		Clc1cccc2sc(SC3CCCc4cccnc43)nc12 (stereo not shown) [Example 23]

Continued, compound first:

SMILES	IC50 (LTD4 receptor) [µM]	IC50 (5-lipoxygenase) [µM]	LTD4 receptor, remark printed beside the value (LTD4 receptor; remark in words)
O=[N+]([O-])c1ccc2nc(SC3CCCc4cccnc43)[nH]c2c1 (stereo not shown) [Example 5, 8-(6-nitro-1H-benzimidazol-2-ylthio)-5,6,7,8-tetrahydroquinoline]	> 100	6.6	
Cc1ccc2nc(SC3CCCc4cccnc43)[nH]c2c1 (stereo not shown) [Example 6, 8-(6-methyl-1H-benzimidazol-2-ylthio)-5,6,7,8-tetrahydroquinoline]	74	5	
Clc1cc2nc(SC3CCCc4cccnc43)[nH]c2cc1Cl (stereo not shown) [Example 7, 8-(5,6-dichloro-1H-benzimidazol-2-ylthio)-5,6,7,8-tetrahydroquinoline]		4.2	
Clc1ccc2nc(SC3CCCc4cccnc43)[nH]c2c1 (stereo not shown) [Example 8, 8-(6-chloro-1H-benzimidazol-2-ylthio)-5,6,7,8-tetrahydroquinoline]	6.3	1.9	
COC(=O)Cc1ccc2oc(SC3CCCc4cccnc43)nc2c1 (stereo not shown) [Example 10, methyl 2-[(5,6,7,8-tetrahydro-8-quinolinyl)-thio]benzoxazole-5-acetate]	12	14.1	
Clc1ccc2sc(SC3CCCc4cccnc43)nc2c1 (stereo not shown) [Example 11, 8-[(5-chloro-2-benzothiazolyl)thio]-5,6,7,8-tetrahydroquinoline]	100	1.5	
Clc1ccc2nc(SC3CCCc4cccnc43)sc2c1 (stereo not shown) [Example 12]	8.9	2.6	
O=c1[nH]c(SC2CCCc3cccnc32)nc2ccccc12 (stereo not shown) [Example 14, 2-[(5,6,7,8-tetrahydroquinoline-8-yl)thio]-4(3H)-quinazolinone]	> 100	> 100	
Cc1ccc2nc(SC3CCCc4cccnc43)sc2c1 (stereo not shown) [Example 15, 8-[(6-methyl-2-benzothiazolyl)thio]-5,6,7,8-tetrahydroquinoline]	9.5	2.3	
O=[N+]([O-])c1ccc2sc(SC3CCCc4cccnc43)nc2c1 (stereo not shown) [Example 16, 8-[(5-nitro-2-benzothiazolyl)thio]-5,6,7,8-tetrahydroquinoline]	> 100	2	
Cc1ccc2sc(SC3CCCc4cccnc43)nc2c1 (stereo not shown) [Example 17, 8-[(5-methyl-2-benzothiazolyl)thio]-5,6,7,8-tetrahydroquinoline]	7.1	1.5	
Clc1cc2nc(SC3CCCc4cccnc43)sc2cc1Cl (stereo not shown) [Example 18, 8-[(5,6-dichloro-2-benzothiazolyl)thio]-5,6,7,8-tetrahydroquinoline]	100	45	
CCSc1ccc2nc(SC3CCCc4cccnc43)sc2c1 (stereo not shown) [Example 19, 8-[(6-ethylthio-2-benzothiazolyl)thio]-5,6,7,8-tetrahydroquinoline]	1.7	1.1	
FC(F)(F)c1ccc2sc(SC3CCCc4cccnc43)nc2c1 (stereo not shown) [Example 21, 8-[(5-trifluoromethyl-2-benzothiazolyl)thio]-5,6,7,8-tetrahydroquinoline]	18	2.6	
Clc1cc(Cl)c2nc(SC3CCCc4cccnc43)sc2c1 (stereo not shown) [Example 22, 8-[(4,6-dichloro-2-benzothiazolyl)thio]-5,6,7,8-tetrahydroquinoline]	> 100	22	
Cc1cccc2sc(SC3CCCc4cccnc43)nc12 (stereo not shown) [Example 24, 8-[(4-methyl-2-benzothiazolyl)thio]-5,6,7,8-tetrahydroquinoline]	14	3.5	
c1ccc(-c2nc(SC3CCCc4cccnc43)[nH]c2-c2ccccc2)cc1 (stereo not shown) [Example 25, 8-(4,5-diphenyl-1H-imidazol-2-ylthio)-5,6,7,8-tetrahydroquinoline]	> 100	3	pot.
Cn1ccnc1SC1CCCc2cccnc21 (stereo not shown) [Example 26, 8-(1-methylimidazol-2-ylthio)-5,6,7,8-tetrahydroquinoline]	> 100	> 100	
c1cnc2c(c1)CCCC2Sc1nccs1 (stereo not shown) [Example 27, 8-(2-thiazolylthio)-5,6,7,8-tetrahydroquinoline]	> 100	25.1	
